Data from PubChem BioAssay AID330 (DTP/NCI, 2004).
Where “and” joins values, the source holds several entries; their conditions need not be identical. Identical values can stand only once. Toxic doses and inconclusive results are not listed.

Test system: P388 leukemia ip, CD2F1 mice, survival T/C
Test: NCI In Vivo Anticancer Drug Screen. Data for tumor model P388 Leukemia (intraperitoneal) in CD2F1 (CDF1) mice
Conditions: endpoint: median survival time, higher = longer survival
Outline: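 Mice carrying the transplanted tumor received test compound or vehicle. Survival was recorded in each group, and the value is the treated-group measurement divided by that of the vehicle-treated control group.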

[1] = dose: 50.0 mg/kg/injection, schedule: Q01DX005 (ip), vehicle: Klucel (hydroxypropylcellulose) (HPC)
[2] = dose: 100.0 mg/kg/injection, schedule: Q01DX005 (ip), vehicle: Klucel (hydroxypropylcellulose) (HPC)
[3] = dose: 200.0 mg/kg/injection, schedule: Q01DX005 (ip), vehicle: Klucel (hydroxypropylcellulose) (HPC)
[4] = dose: 200.0 mg/kg/injection, schedule: Q04DX002 (ip), vehicle: saline with Tween-80
[5] = dose: 400.0 mg/kg/injection, schedule: Q04DX002 (ip), vehicle: saline with Tween-80
[6] = dose: 50.0 mg/kg/injection, schedule: Q01DX009 (ip), vehicle: saline with Tween-80
[7] = dose: 60.0 mg/kg/injection, schedule: Q01DX005 (ip), vehicle: Klucel (hydroxypropylcellulose) (HPC)
[8] = dose: 120.0 mg/kg/injection, schedule: Q01DX005 (ip), vehicle: Klucel (hydroxypropylcellulose) (HPC)
[9] = dose: 240.0 mg/kg/injection, schedule: Q01DX005 (ip), vehicle: Klucel (hydroxypropylcellulose) (HPC)
[10] = dose: 6.25 mg/kg/injection, schedule: Q01DX005 (ip), vehicle: Klucel (hydroxypropylcellulose) (HPC)
[11] = dose: 12.5 mg/kg/injection, schedule: Q01DX005 (ip), vehicle: Klucel (hydroxypropylcellulose) (HPC)
[12] = dose: 50.0 mg/kg/injection, schedule: Q01DX005 (ip), vehicle: saline with Tween-80
[13] = dose: 100.0 mg/kg/injection, schedule: Q01DX005 (ip), vehicle: saline with Tween-80
[14] = dose: 50.0 mg/kg/injection, schedule: Q01DX005 (ip), vehicle: saline
[15] = dose: 100.0 mg/kg/injection, schedule: Q01DX005 (ip), vehicle: saline
[16] = dose: 200.0 mg/kg/injection, schedule: Q01DX005 (ip), vehicle: saline

Structure (SMILES): CN1C=CC=CC1=C1C(=O)c2ccccc2C1=O
- T/C [1]: 96 % of control
- T/C [2]: 104 % of control
- T/C [3]: 107 % of control

Structure (SMILES): CN(C)CCNC(=O)c1noc2c1CSc1ccccc1-2
- T/C (dose: 100.0 mg/kg/injection, schedule: Q01DX001 (ip), vehicle: saline with Tween-80): 101 % of control
- T/C (dose: 200.0 mg/kg/injection, schedule: Q01DX001 (ip), vehicle: saline with Tween-80): 101 % of control
- T/C (dose: 400.0 mg/kg/injection, schedule: Q01DX001 (ip), vehicle: saline with Tween-80): 100 % of control

Structure (SMILES): Cc1nn(C(=S)S)c(C)c1N=Nc1ccccc1C(F)(F)F
- T/C (dose: 3.12 mg/kg/injection, schedule: Q04DX002 (ip), vehicle: saline with Tween-80): 99 % of control and 102 % of control
- T/C (dose: 6.25 mg/kg/injection, schedule: Q04DX002 (ip), vehicle: saline with Tween-80): 100 % of control
- T/C (dose: 12.5 mg/kg/injection, schedule: Q04DX002 (ip), vehicle: saline with Tween-80): 108 % of control and 94 % of control
- T/C (dose: 25.0 mg/kg/injection, schedule: Q04DX002 (ip), vehicle: saline with Tween-80): 103 % of control and 86 % of control and 89 % of control
- T/C (dose: 50.0 mg/kg/injection, schedule: Q04DX002 (ip), vehicle: saline with Tween-80): 96 % of control
- T/C [4]: 89 % of control
- T/C [5]: 105 % of control

Structure (SMILES): Nc1nc(C2CCCCC2)cc(=O)[nH]1
- T/C [1]: 87 % of control
- T/C [2]: 97 % of control
- T/C [3]: 97 % of control

Structure (SMILES): CCOC(=O)C(=CNc1cccc2cccnc12)C(=O)OCC
- T/C (dose: 100.0 mg/kg/injection, schedule: Q04DX002 (ip), vehicle: saline with Tween-80): 97 % of control
- T/C [4]: 99 % of control
- T/C [5]: 99 % of control

Structure (SMILES): NC(=S)N/N=C/c1ccc(O)cn1
- T/C (dose: 18.8 mg/kg/injection, schedule: Q01DX009 (ip), vehicle: other): 152 % of control and 185 % of control
- T/C (dose: 18.8 mg/kg/injection, schedule: Q01DX009 (ip), vehicle: saline with Tween-80): 156 % of control
- T/C (dose: 25.0 mg/kg/injection, schedule: Q01DX001 (ip), vehicle: Klucel (hydroxypropylcellulose) (HPC)): 118 % of control and 119 % of control
- T/C (dose: 25.0 mg/kg/injection, schedule: Q04DX002 (ip), vehicle: Klucel (hydroxypropylcellulose) (HPC)): 113 % of control and 116 % of control
- T/C (dose: 25.0 mg/kg/injection, schedule: Q04DX003 (ip), vehicle: Klucel (hydroxypropylcellulose) (HPC)): 115 % of control
- T/C (dose: 37.5 mg/kg/injection, schedule: Q01DX009 (ip), vehicle: other): 175 % of control and 221 % of control
- T/C (dose: 37.5 mg/kg/injection, schedule: Q01DX009 (ip), vehicle: saline): 172 % of control
- T/C (dose: 75.0 mg/kg/injection, schedule: Q01DX009 (ip), vehicle: saline with Tween-80): 173 % of control
- T/C (dose: 75.0 mg/kg/injection, schedule: Q01DX009 (ip), vehicle: saline): 160 % of control

Structure (SMILES): Cc1cc(C)c2c(=O)n(C)c(=O)n(C)c2n1
- T/C [6]: 89 % of control
- T/C (dose: 100.0 mg/kg/injection, schedule: Q01DX009 (ip), vehicle: saline with Tween-80): 94 % of control
- T/C (dose: 200.0 mg/kg/injection, schedule: Q01DX009 (ip), vehicle: saline with Tween-80): 103 % of control

Structure (SMILES): CNc1ccccc1CO
- T/C (dose: 100.0 mg/kg/injection, schedule: Q04DX003 (ip), vehicle: other): 95 % of control
- T/C (dose: 200.0 mg/kg/injection, schedule: Q04DX003 (ip), vehicle: other): 95 % of control
- T/C (dose: 400.0 mg/kg/injection, schedule: Q04DX003 (ip), vehicle: other): 90 % of control

Structure (SMILES): CCC1(O)CC(O)c2c(O)c3c(c(O)c2C1C(=O)OC)C(=O)c1cccc(O)c1C3=O (centres undefined)
- T/C [7]: 96 % of control
- T/C [8]: 94 % of control
- T/C [9]: 105 % of control

Structure (SMILES): COc1ccc2c(C)cc(NN)nc2c1
- T/C [10]: 104 % of control
- T/C [11]: 103 % of control

Structure (SMILES): CC(=O)CC1C(=O)OC(C)(C)OC1=O
- T/C [12]: 112 % of control
- T/C [13]: 106 % of control
- T/C (dose: 200.0 mg/kg/injection, schedule: Q01DX005 (ip), vehicle: saline with Tween-80): 103 % of control

Structure (SMILES): CC(=O)NC(=O)CCCCCCC(=O)NC(C)=O
- T/C [1]: 88 % of control

Structure (SMILES): CC(C)c1nc2ccc(Cl)cc2[nH]1
- T/C [12]: 105 % of control
- T/C [13]: 100 % of control

Structure (SMILES): O=C(Nc1ccc(C2=NCCCN2)cc1)Nc1cccc(C(=O)Nc2ccc(C3=NCCCN3)cc2)c1
- T/C (dose: 1.5 mg/kg/injection, schedule: Q01DX009 (ip), vehicle: saline with Tween-80): 100 % of control
- T/C (dose: 3.0 mg/kg/injection, schedule: Q01DX009 (ip), vehicle: saline with Tween-80): 109 % of control
- T/C (dose: 12.5 mg/kg/injection, schedule: Q04DX003 (ip), vehicle: saline with Tween-80): 104 % of control
- T/C (dose: 16.5 mg/kg/injection, schedule: Q01DX009 (ip), vehicle: saline with Tween-80): 163 % of control
- T/C (dose: 25.0 mg/kg/injection, schedule: Q04DX003 (ip), vehicle: saline with Tween-80): 118 % of control
- T/C [6]: 90 % of control
- T/C (dose: 50.0 mg/kg/injection, schedule: Q04DX003 (ip), vehicle: saline with Tween-80): 118 % of control

Structure (SMILES): NCCCN1CCCC1
- T/C [14]: 95 % of control
- T/C [15]: 105 % of control

Structure (SMILES): Cc1nc2ccccc2c(=O)n1C(C)C
- T/C (dose: 50.0 mg/kg/injection, schedule: Q01DX009 (ip), vehicle: saline): 99 % of control
- T/C (dose: 100.0 mg/kg/injection, schedule: Q01DX009 (ip), vehicle: saline): 100 % of control
- T/C (dose: 200.0 mg/kg/injection, schedule: Q01DX009 (ip), vehicle: saline): 104 % of control

Structure (SMILES): CCN(CC)Cc1cc(N=Nc2cccc3ccccc23)c2ccccc2c1O
- T/C (dose: 50.0 mg/kg/injection, schedule: Q01DX009 (ip), vehicle: Klucel (hydroxypropylcellulose) (HPC)): 102 % of control
- T/C (dose: 100.0 mg/kg/injection, schedule: Q01DX009 (ip), vehicle: Klucel (hydroxypropylcellulose) (HPC)): 108 % of control
- T/C (dose: 200.0 mg/kg/injection, schedule: Q01DX009 (ip), vehicle: Klucel (hydroxypropylcellulose) (HPC)): 100 % of control

Structure (SMILES): N#Cc1ccc[n+](CC(=O)c2ccc3ccccc3c2)c1
- T/C [10]: 103 % of control
- T/C [11]: 103 % of control
- T/C (dose: 25.0 mg/kg/injection, schedule: Q01DX005 (ip), vehicle: Klucel (hydroxypropylcellulose) (HPC)): 100 % of control

Structure (SMILES): Cc1cc(N=Nc2ccncc2C)ccc1N
- T/C (dose: 6.25 mg/kg/injection, schedule: Q01DX009 (ip), vehicle: saline with Tween-80): 106 % of control
- T/C (dose: 12.5 mg/kg/injection, schedule: Q01DX009 (ip), vehicle: saline with Tween-80): 104 % of control
- T/C (dose: 25.0 mg/kg/injection, schedule: Q01DX009 (ip), vehicle: saline with Tween-80): 100 % of control
- T/C [6]: 92 % of control

Structure (SMILES): C#CCC(N)C(=O)O (centres undefined)
- T/C (dose: 12.5 mg/kg/injection, schedule: Q01DX005 (ip), vehicle: saline): 107 % of control
- T/C (dose: 25.0 mg/kg/injection, schedule: Q01DX005 (ip), vehicle: saline): 111 % of control
- T/C [14]: 100 % of control and 106 % of control
- T/C [15]: 108 % of control

Structure (SMILES): CC(O)CCOCCCBr (centres undefined)
- T/C [14]: 100 % of control
- T/C [15]: 102 % of control
- T/C [16]: 102 % of control

Structure (SMILES): CCOC(CN)(OCC)c1ccncc1
- T/C [14]: 102 % of control
- T/C [15]: 101 % of control
- T/C [16]: 101 % of control

Structure (SMILES): COc1ccc(N(CN2C(=O)CCC2=O)CS(=O)(=O)c2ccc(C)cc2)cc1
- T/C [7]: 100 % of control
- T/C [8]: 100 % of control
- T/C [9]: 100 % of control

Structure (SMILES): COc1cc(-c2ccc(N=Nc3ccc4c(S(=O)(=O)O)cc(S(=O)(=O)O)c(N)c4c3O)c(OC)c2)ccc1N=Nc1ccc2c(S(=O)(=O)O)cc(S(=O)(=O)O)c(N)c2c1O
- T/C (dose: 12.5 mg/kg/injection, schedule: Q01DX009 (ip), vehicle: saline): 94 % of control
- T/C (dose: 25.0 mg/kg/injection, schedule: Q01DX009 (ip), vehicle: saline): 92 % of control

Structure (SMILES): CCC1CCCCN1Cc1ccccc1 (centres undefined)
- T/C [7]: 108 % of control
- T/C [8]: 110 % of control

Structure (SMILES): CC(C)C1SCC(=O)N1c1nncs1 (centres undefined)
- T/C (dose: 60.0 mg/kg/injection, schedule: Q01DX005 (ip), vehicle: saline with Tween-80): 103 % of control
- T/C (dose: 120.0 mg/kg/injection, schedule: Q01DX005 (ip), vehicle: saline with Tween-80): 112 % of control
- T/C (dose: 240.0 mg/kg/injection, schedule: Q01DX005 (ip), vehicle: saline with Tween-80): 107 % of control

Structure (SMILES): Cc1oc2ccccc2c(=O)c1CN1CCN(C)CC1
- T/C (dose: 60.0 mg/kg/injection, schedule: Q01DX005 (ip), vehicle: saline): 101 % of control
- T/C (dose: 120.0 mg/kg/injection, schedule: Q01DX005 (ip), vehicle: saline): 103 % of control
